Test results as given in patent publication US20250032524A1, “BROAD SPECTRUM AMINOGLYCOSIDES AND USES THEREOF” (REVAGENIX, INC., priority 2022, published 2025).

How the values were obtained:
Format in all cases: cell-based
[1] = test system: K. pneumoniae; test: MIC broth microdilution (CLSI)
Protocol: (§1) Minimum inhibitory concentrations for representative example compounds herein were determined by a broth microdilution method in accordance with the Clinical and Laboratory Standards Institute (CLSI) guidelines. In brief, organism suspensions were adjusted to a 0.5 McFarland standard to yield a final inoculum between 3×10^5 and 7×10^5 colony-forming units (CFU)/mL. The inoculum was prepared by suspension of a colony from an agar plate that was prepared the previous day. Compound dilutions and inoculum were prepared in sterile, cation adjusted Mueller-Hinton Broth (Beckton Dickinson).
(§2) Bacteria were suspended in sterile saline and added to each assay plate to obtain a final concentration of 5×10^5 CFU/mL. An inoculum volume of 100 μL was added to wells containing 100 μL of broth with 2-fold serial dilutions of the test compound. All inoculated microdilution trays were incubated in ambient air at 35° C. for 18-24 hours. Following incubation, the lowest concentration of the compound that prevented visible growth (OD 600 nm<0.05) is recorded was the MIC. […] Performance of the assay was monitored by the use of laboratory quality-control strains and a standard compound with a defined MIC spectrum (neomycin), in accordance with CLSI guidelines.

[2] = test system: K. aerogenes; test: MIC broth microdilution (CLSI); conditions: strain AEAE1042, MDR Clinical isolate (CDC CRE panel), CDC AR Bank 0161
Protocol: as §1, §2

[3] = test system: S. aureus; test: MIC broth microdilution (CLSI)
Protocol: as §1, §2

[4] = test system: E. coli; test: MIC broth microdilution (CLSI)
Protocol: as §1, §2

[5] = test system: E. cloacae; test: MIC broth microdilution (CLSI); conditions: strain AECL1089, MDR Clinical isolate (CDC CRE panel), CDC AR Bank 0154
Protocol: as §1, §2

[6] = test system: C. freundii; test: MIC broth microdilution (CLSI); conditions: strain ACSP1001, MDR Clinical isolate (CDC CRE panel), CDC AR Bank 0157
Protocol: as §1, §2

[7] = test system: P. aeruginosa; test: MIC broth microdilution (CLSI)
Protocol: as §1, §2

[8] = test system: A. baumannii; test: MIC broth microdilution (CLSI)
Protocol: as §1, §2

[9] = test system: S. enterica; test: MIC broth microdilution (CLSI); conditions: strain ASSE1001, MDR Clinical isolate (CDC CRE panel), CDC AR Bank 0127
Protocol: as §1, §2

[10] = test system: P. mirabilis; test: MIC broth microdilution (CLSI); conditions: strain APMI1048, MDR Clinical isolate (CDC CRE panel), CDC AR Bank 0159
Protocol: as §1, §2

[11] = test system: A. baumannii-calcoaceticus; test: Antibacterial surveillance of clinical isolates (MIC50/90); conditions: 100 isolates
Protocol: as §1, §2
(§3) Several compounds of the disclosure (Compound 1, 2, and 3) were further evaluated against several hundred bacterial isolates (isolated in the United States and Europe, 1:1) selected from the SENTRY Antimicrobial Surveillance Program (JMI Laboratories, North Liberty, Iowa). The set of clinical isolates included 300 randomly selected Enterobacterales, 103 randomly selected P. aeruginosa, 100 randomly selected A. baumannii-calcoaceticus, 20 randomly selected Methicillin-sensitive S. aureus (MSSA), and 30 randomly selected Methicillin-resistant S. aureus (MRSA). In addition, 101 Enterobacterales and 50 P. aeruginosa isolates with genetically defined mechanisms of aminoglycoside resistance were included. The MIC values at which ≥50% (MIC50) and ≥90% (MIC90) of isolates within a given set are inhibited were determined for each compound against each set of organisms.

[12] = test system: Methicillin-sensitive S. aureus (MSSA); test: as above; conditions: 20 isolates
Protocol: as §1, §2, §3

[13] = test system: AG-resistant P. aeruginosa; test: as above; conditions: 50 isolates with defined aminoglycoside resistance
Protocol: as §1, §2, §3

[14] = test system: AG-resistant Enterobacterales; test: as above; conditions: 101 isolates with defined aminoglycoside resistance
Protocol: as §1, §2, §3

[15] = test system: P. aeruginosa; test: as above; conditions: 103 isolates
Protocol: as §1, §2, §3

[16] = test system: Methicillin-resistant S. aureus (MRSA); test: as above; conditions: 30 isolates
Protocol: as §1, §2, §3

NC[C@@H]1O[C@H](O[C@H]2[C@@H](O)[C@H](O[C@@H]3[C@@H](O)[C@H](N)C[C@H](N)[C@H]3O[C@H]3O[C@H](CN)[C@@H](O)[C@H](O)[C@H]3N)O[C@@H]2CO)[C@H](N)[C@@H](O)[C@@H]1O [NEO, neomycin, reference compound]
Activity (MIC) ([1]; strain AKPN1246, MDR Clinical isolate (CDC CRE panel), CDC AR Bank 0139): + (MIC threshold for positive activity (+) is ≤16 μg/mL) | Activity (MIC) ([1]; strain AKPN1250, MDR Clinical isolate (CDC CRE panel), CDC AR Bank 0143): + (MIC threshold for positive activity (+) is ≤16 μg/mL) | Activity (MIC) ([1]; strain AKPN1253, MDR Clinical isolate (CDC CRE panel), CDC AR Bank 0148): + (MIC threshold for positive activity (+) is ≤16 μg/mL) | Activity (MIC) ([1]; strain AKPN1255, MDR Clinical isolate (CDC CRE panel), CDC AR Bank 0153): + (MIC threshold for positive activity (+) is ≤16 μg/mL) | Activity (MIC) [2]: + (MIC threshold for positive activity (+) is ≤16 μg/mL) | Activity (MIC) ([3]; strain NSAU001, wild-type, QC, ATCC 29213): + (MIC threshold for positive activity (+) is ≤16 μg/mL) | Activity (MIC) ([3]; strain NSAU1004, MDR Clinical isolate): + (MIC threshold for positive activity (+) is ≤16 μg/mL) | Activity (MIC) ([3]; strain NSAU1015, MDR Clinical isolate): + (MIC threshold for positive activity (+) is ≤16 μg/mL) | Activity (MIC) ([3]; strain NSAU1023, MDR Clinical isolate): − (for inactive (−) is >16 μg/mL) | Activity (MIC) ([3]; strain NSAU1063, MDR Clinical isolate): − (for inactive (−) is >16 μg/mL) | Activity (MIC) ([4]; strain AECO1225, MDR Clinical isolate (CDC CRE panel), CDC AR Bank 0118): + (MIC threshold for positive activity (+) is ≤16 μg/mL) | Activity (MIC) ([4]; strain AECO1226, MDR Clinical isolate (CDC CRE panel), CDC AR Bank 0119): + (MIC threshold for positive activity (+) is ≤16 μg/mL) | Activity (MIC) ([4]; strain AECO1227, MDR Clinical isolate (CDC CRE panel), CDC AR Bank 0128): + (MIC threshold for positive activity (+) is ≤16 μg/mL) | Activity (MIC) ([4]; strain NECO0001, WT QC): + (MIC threshold for positive activity (+) is ≤16 μg/mL) | Activity (MIC) ([4]; strain NECO0002, WT): + (MIC threshold for positive activity (+) is ≤16 μg/mL) | Activity (MIC) ([4]; strain NECO0003, ΔtolC): + (MIC threshold for positive activity (+) is ≤16 μg/mL) | Activity (MIC) ([4]; strain NECO0243, empty vector): + (MIC threshold for positive activity (+) is ≤16 μg/mL) | Activity (MIC) ([4]; strain NECO0244, AAC(6')-Ib): + (MIC threshold for positive activity (+) is ≤16 μg/mL) | Activity (MIC) ([4]; strain NECO0245, ArmA): + (MIC threshold for positive activity (+) is ≤16 μg/mL) | Activity (MIC) ([4]; strain NECO0289, APH(3')-Ia): − (for inactive (−) is >16 μg/mL) | Activity (MIC) ([4]; strain NECO0302, AAC(3)-IIa): + (MIC threshold for positive activity (+) is ≤16 μg/mL) | Activity (MIC) ([4]; strain NECO0350, AAC(2')-I): + (MIC threshold for positive activity (+) is ≤16 μg/mL) | Activity (MIC) ([4]; strain NECO0359, ANT(4')-Ia): + (MIC threshold for positive activity (+) is ≤16 μg/mL) | Activity (MIC) [5]: + (MIC threshold for positive activity (+) is ≤16 μg/mL) | Activity (MIC) [6]: − (for inactive (−) is >16 μg/mL) | Activity (MIC) ([7]; strain NPAE0001, WT Aph(3')-IIb, QC): − (for inactive (−) is >16 μg/mL) | Activity (MIC) ([7]; strain NPAE0002, WT Aph(3')-IIb): + (MIC threshold for positive activity (+) is ≤16 μg/mL) | Activity (MIC) ([7]; strain NPAE0006, Efflux KO, Aph(3')-IIb): + (MIC threshold for positive activity (+) is ≤16 μg/mL) | Activity (MIC) ([7]; strain NPAE0010, MexXY over-expressed, Aph(3')-IIb): − (for inactive (−) is >16 μg/mL) | Activity (MIC) ([7]; strain NPAE0359, aph(3')-IIb KO (tetR)): − (for inactive (−) is >16 μg/mL) | Activity (MIC) ([7]; strain NPAE1288, MDR Clinical isolate): − (for inactive (−) is >16 μg/mL) | Activity (MIC) ([7]; strain NPAE1293, MDR Clinical isolate): − (for inactive (−) is >16 μg/mL) | Activity (MIC) ([7]; strain NPAE1299, MDR Clinical isolate): − (for inactive (−) is >16 μg/mL) | Activity (MIC) ([7]; strain NPAE1302, MDR Clinical isolate): − (for inactive (−) is >16 μg/mL) | Activity (MIC) ([7]; strain NPAE1303, MDR Clinical isolate): − (for inactive (−) is >16 μg/mL) | Activity (MIC) ([7]; strain NPAE1308, MDR Clinical isolate): − (for inactive (−) is >16 μg/mL) | Activity (MIC) ([7]; strain NPAE1310, MDR Clinical isolate): + (MIC threshold for positive activity (+) is ≤16 μg/mL) | Activity (MIC) ([7]; strain NPAE1313, MDR Clinical isolate): − (for inactive (−) is >16 μg/mL) | Activity (MIC) ([7]; strain NPAE1316, MDR Clinical isolate): + (MIC threshold for positive activity (+) is ≤16 μg/mL) | Activity (MIC) ([7]; strain NPAE1323, MDR Clinical isolate): − (for inactive (−) is >16 μg/mL) | Activity (MIC) ([8]; strain NABA0006, WT parent): + (MIC threshold for positive activity (+) is ≤16 μg/mL) | Activity (MIC) ([8]; strain NABA0007, ΔadeJK efflux): + (MIC threshold for positive activity (+) is ≤16 μg/mL) | Activity (MIC) ([8]; strain NABA0020, AME negative strain): + (MIC threshold for positive activity (+) is ≤16 μg/mL) | Activity (MIC) ([8]; strain NABA1427, MDR Clinical isolate): − (for inactive (−) is >16 μg/mL) | Activity (MIC) ([8]; strain NABA1433, MDR Clinical isolate): − (for inactive (−) is >16 μg/mL) | Activity (MIC) ([8]; strain NABA1434, MDR Clinical isolate): + (MIC threshold for positive activity (+) is ≤16 μg/mL) | Activity (MIC) ([8]; strain NABA1436, MDR Clinical isolate): − (for inactive (−) is >16 μg/mL) | Activity (MIC) ([8]; strain NABA1437, MDR Clinical isolate): + (MIC threshold for positive activity (+) is ≤16 μg/mL) | Activity (MIC) ([8]; strain NABA1438, MDR Clinical isolate): − (for inactive (−) is >16 μg/mL) | Activity (MIC) ([8]; strain NABA1439, MDR Clinical isolate): − (for inactive (−) is >16 μg/mL) | Activity (MIC) ([8]; strain NABA1448, MDR Clinical isolate): − (for inactive (−) is >16 μg/mL) | Activity (MIC) ([8]; strain NABA1449, MDR Clinical isolate): + (MIC threshold for positive activity (+) is ≤16 μg/mL) | Activity (MIC) ([8]; strain NABA1450, MDR Clinical isolate): − (for inactive (−) is >16 μg/mL) | Activity (MIC) [9]: + (MIC threshold for positive activity (+) is ≤16 μg/mL) | Activity (MIC) [10]: + (MIC threshold for positive activity (+) is ≤16 μg/mL)

gentamicin [reference compound]
MIC50 [11]: + (+ = MIC50 or MIC90 ≤ 16 μg/mL) | MIC90 [11]: − (− = MIC50 or MIC90 > 16 μg/mL) | MIC50 [12]: +/+ (+ = MIC50 or MIC90 ≤ 16 μg/mL) | MIC90 [12]: +/+ (+ = MIC50 or MIC90 ≤ 16 μg/mL) | MIC50 [13]: + (+ = MIC50 or MIC90 ≤ 16 μg/mL) | MIC90 [13]: − (− = MIC50 or MIC90 > 16 μg/mL) | MIC50 [14]: −/− (− = MIC50 or MIC90 > 16 μg/mL) | MIC90 [14]: −/− (− = MIC50 or MIC90 > 16 μg/mL) | MIC50 [15]: +/+ (+ = MIC50 or MIC90 ≤ 16 μg/mL) | MIC90 [15]: +/+ (+ = MIC50 or MIC90 ≤ 16 μg/mL) | MIC50 [16]: +/+ (+ = MIC50 or MIC90 ≤ 16 μg/mL) | MIC90 [16]: +/+ (+ = MIC50 or MIC90 ≤ 16 μg/mL)
